Consider 8 compounds from US20240300980A1, “HETEROCYCLIC COMPOUNDS AS KRAS INHIBITOR, AND PREPARATION THEREFOR AND USE THEREOF IN TREATMENT” (SHANGHAI KECHOW PHARMA, INC., priority 2021, published 2024).

Bounds are passed on as bounds.

The test system of one test is AGS cells (KRAS^G12D). The test can be described thus: Detection of cell proliferation in vitro by MTT/MTS method (cell activity experiment). Particulars: AGS cells; MTT/MTS; 3 days of drug treatment; read-out: AGS IC50. It counts as cell-based. An outline of the steps:
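After 3-day compound exposure (final DMSO 0.5%), viability of AGS (KRAS G12D) cells, plated 1000/well one day before dosing, was measured at 490 nm following 4 h MTT or MTS incubation. IC50 was fitted from dose–effect curves relative to DMSO-treated wells.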
In general terms: Formazan colour is commonly taken as a measure of viable cells.
Usually IC50 stands for the concentration at which inhibition is half-maximal. On to `C#Cc1c(F)ccc2cc(O)cc(-c3ccc4c(N5C[C@H]6CC[C@@H](C5)[C@@H]6C#N)nc(OC[C@@]56CCCN5C[C@H](F)C6)nc4c3F)c12` [Example 127, (1R,5S,8S)-3-(7-(8-ethynyl-7-fluoro-3-hydroxynaphthalen-1-yl)-8-fluoro-2-(((2R,7aS)-2-fluorotetrahydro-1H-pyrrolizin-7a(5H)-yl)methoxy)quinazolin-4-yl)-3-azabicyclo [3.2.1]octane-8-carbonitrile], for which the IC50 is over 2.5 µM.

The same test, now with this note: Homo sapiens, AGS, 72 h, AGS cells; MTT/MTS; 3 days of drug treatment; read-out: AGS IC50.
As to `C#Cc1c(F)ccc2cc(O)cc(-c3ncc4c(N5CC6CCCNC6C5)nc(OC[C@@]56CCCN5C[C@H](F)C6)nc4c3F)c12` (stereo partly drawn) [Example 52, 5-ethynyl-6-fluoro-4-(8-fluoro-2-(((2R,7aS)-2-fluorotetrahydro-1H-pyrrolizin-7a(5H)-yl)methoxy)-4-(octahydro-6H-pyrrolo[3,4-b]pyridin-6-yl)pyrido[4,3-d]pyrimidin-7-yl)naphthalen-2-ol], the IC50 is over 2.5 µM.

With `C#Cc1c(F)ccc2cc(O)cc(-c3cc4nc(OC[C@@]56CCCN5C[C@H](F)C6)c(C#N)c(N5C[C@H]6CC[C@@H](C5)N6)c4cn3)c12` [Example 188, 4-((1R,5S)-3,8-diazabicyclo[3.2.1]octan-3-yl)-7-(8-ethynyl-7-fluoro-3-hydroxynaphthalen-1-yl)-2-(((2R,7aS)-2-fluorotetrahydro-1H-pyrrolizin-7a(5H)-yl)methoxy)-1,6-naphthyridine-3-carbonitrile], the IC50 worked out at 1.55 µM.

In the case of `CCC1CCCc2cc(O)cc(-c3ccc4c(N5C[C@H]6CC[C@@H](C5)N6)nc(OC[C@@]56CCCN5C[C@H](F)C6)nc4c3F)c21` (stereo partly drawn) [Example 289, 4-(4-((1R,5S)-3,8-diazabicyclo[3.2.1]octan-3-yl)-8-fluoro-2-(((2R,7aS)-2-fluorotetrahydro-1H-pyrrolizin-7a(5H)-yl)methoxy)quinazolin-7-yl)-5-ethyl-5,6,7,8-tetrahydronaphthalen-2-ol], the IC50 was found to be 0.015 µM.

Take `N#Cc1c(OC[C@@]23CCCN2C[C@H](F)C3)nc2c(F)c(-c3cc(O)cc4cccc(F)c34)ncc2c1N1C[C@H]2CC[C@@H](C1)N2` [Example 194, 4-((1R,5S)-3,8-diazabicyclo[3.2.1]octan-3-yl)-8-fluoro-7-(8-fluoro-3-hydroxynaphthalen-1-yl)-2-(((2R,7aS)-2-fluorotetrahydro-1H-pyrrolizin-7a(5H)-yl)methoxy)-1,6-naphthyridine-3-carbonitrile]: the IC50 was 0.15 µM.

As to `Oc1cc(-c2ccc3c(N4C[C@H]5CC[C@@H](C4)S5)nc(OC[C@@]45CCCN4C[C@H](F)C5)nc3c2F)c2c(F)c(F)ccc2c1` [Example 164, 4-(4-((1R,5S)-8-thia-3-azabicyclo[3.2.1]octan-3-yl)-8-fluoro-2-(((2R,7aS)-2-fluorotetrahydro-1H-pyrrolizin-7a(5H)-yl)methoxy)quinazolin-7-yl)-5,6-difluoronaphthalen-2-ol], the IC50 came to 0.3 µM.

Consider `C#Cc1cccc2cc(O)cc(N3CCc4c(nc(OC[C@@]56CCCN5C[C@H](F)C6)nc4N4C[C@H]5CC[C@@H](C4)N5)C3)c12` [Example 206, 4-(4-((1R,5S)-3,8-diazabicyclo[3.2.1]octan-3-yl)-2-(((2R,7aS)-2-fluorotetrahydro-1H-pyrrolizin-7a(5H)-yl)methoxy)-5,8-dihydropyrido[3,4-d]pyrimidin-7(6H)-yl)-5-ethynylnaphthalen-2-ol], for which the IC50 was determined as 0.02 µM.

As to `Oc1cc(-c2ncc3c(N4C[C@H]5CC[C@@H](C4)N5)nc(OCC4(CN5CCCC5)CC4)nc3c2F)c2c(F)c(F)ccc2c1` [Example 5, 4-(4-((1R,5S)-3,8-diazabicyclo[3.2.1]octan-3-yl)-8-fluoro-2-((1-(pyrrolidin-1-ylmethyl)cyclopropyl)methoxy)pyrido[4,3-d]pyrimidin-7-yl)-5,6-difluoronaphthalen-2-ol], the IC50 was 0.0038 µM.
